Measurements from patent US20230220021A1, “CYCLIC PEPTIDE INHIBITORS OF PSD-95 AND USES THEREOF” (University of Copenhagen, priority 2020, published 2023).
Read-outs that look alike come from different tables or passages of the source. Where a SMILES comes first, the peptide text is derived from it. [ ]: non-standard residue; d: D form.

Target: T1, PSD-95-PDZ2 (Homo sapiens, UniProt P78352)
T1 construct: 7xHis (N); made in house; host or cells: Escherichia coli B21 pLys (for the mutants, 'as previously described')
Assay: Fluorescence polarization (FP) competition assay against cyclic nNOS TAMRA probe
Assay type: binding
Settings: for Ki: cyclic nNOS TAMRA probe, mean of triplicates, N.B. = not binding; for Relative Ki (Ki mut/Ki WT): FP inhibition constant normalized to WT value

T1 sequence (P78352 160-246 limits assumed): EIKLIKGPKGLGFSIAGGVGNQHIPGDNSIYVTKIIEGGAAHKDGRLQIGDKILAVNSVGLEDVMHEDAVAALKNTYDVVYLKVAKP

| Compound | Relative Ki (Ki mut/Ki WT) | further results |
| --- | --- | --- |
| 80 (THLEXTFTGDGTPKTIRVTQPGQ; cyclized peptide; (5)..(5) X is AlloT; (21)..(21) is D-AA) [compound 80] |  | Ki (FP competition): N.B. |
| CC[C@H](C)[C@@H]1NC(=O)[C@H]([C@@H](C)O)NC(=O)[C@H](CCCCN)NC(=O)[C@@H]2CCCN2C(=O)[C@H]([C@@H](C)O)NC(=O)CNC(=O)[C@H](CC(=O)O)NC(=O)CNC(=O)[C@H]([C@@H](C)O)NC(=O)[C@H](Cc2ccccc2)NC(=O)[C@H]([C@@H](C)O)NC(=O)[C@H]([C@@H](C)O)NC(=O)[C@H](CCC(=O)O)NC(=O)[C@H](CC(C)C)NC(=O)[C@H](CCC(=O)O)NC(=O)[C@H]([C@@H](C)O)NC(=O)[C@H](CCC(N)=O)NC(=O)CNC(=O)[C@H]2CCCN2C(=O)[C@H](CCC(N)=O)NC(=O)[C@H]([C@@H](C)O)NC(=O)[C@H](C(C)C)NC(=O)[C@H](CCCNC(=N)N)NC1=O [compound 23] (cyclo(TELETTFTGDGTPKTIRVTQ[dP]GQ)) | 4.13 | Ki (FP competition, read-out: Ki): 6.19 µM |
| CC[C@H](C)[C@@H]1NC(=O)[C@H]([C@@H](C)O)NC(=O)[C@H](CCCCN)NC(=O)[C@@H]2CCCN2C(=O)[C@H]([C@@H](C)O)NC(=O)CNC(=O)[C@H](CC(=O)O)NC(=O)CNC(=O)[C@H]([C@@H](C)O)NC(=O)[C@H](Cc2ccccc2)NC(=O)[C@H]([C@@H](C)O)NC(=O)[C@H]([C@@H](C)O)NC(=O)[C@H](CCC(=O)O)NC(=O)[C@H](C)NC(=O)[C@H](Cc2c[nH]cn2)NC(=O)[C@H]([C@@H](C)O)NC(=O)[C@H](CCC(N)=O)NC(=O)CNC(=O)[C@H]2CCCN2C(=O)[C@H](CCC(N)=O)NC(=O)[C@H]([C@@H](C)O)NC(=O)[C@H](C(C)C)NC(=O)[C@H](CCCNC(=N)N)NC1=O [compound 57] (cyclo(THAETTFTGDGTPKTIRVTQ[dP]GQ)) | 2.36 |  |
| CC[C@H](C)[C@@H]1NC(=O)[C@H]([C@@H](C)O)NC(=O)[C@H](CCCCN)NC(=O)[C@@H]2CCCN2C(=O)[C@H]([C@@H](C)O)NC(=O)CNC(=O)[C@H](CCCCN)NC(=O)CNC(=O)[C@H]([C@@H](C)O)NC(=O)[C@H](Cc2ccccc2)NC(=O)[C@H]([C@@H](C)O)NC(=O)[C@H]([C@@H](C)O)NC(=O)[C@H](CCC(=O)O)NC(=O)[C@H](CC(C)C)NC(=O)[C@H](Cc2c[nH]cn2)NC(=O)[C@H]([C@@H](C)O)NC(=O)[C@H](CCC(N)=O)NC(=O)CNC(=O)[C@H]2CCCN2C(=O)[C@H](CCC(N)=O)NC(=O)[C@H]([C@@H](C)O)NC(=O)[C@H](C(C)C)NC(=O)[C@H](CCCNC(=N)N)NC1=O [compound 28] (cyclo(THLETTFTGKGTPKTIRVTQ[dP]GQ)) | 1.91 |  |
| CC[C@H](C)[C@@H]1NC(=O)[C@H]([C@@H](C)O)NC(=O)[C@H](CCCCN)NC(=O)[C@@H]2CCCN2C(=O)[C@H]([C@@H](C)O)NC(=O)CNC(=O)[C@H](CC(=O)O)NC(=O)CNC(=O)[C@H]([C@@H](C)O)NC(=O)[C@H](Cc2ccccc2)NC(=O)[C@H]([C@@H](C)O)NC(=O)[C@H]([C@@H](C)O)NC(=O)[C@H](CCC(=O)O)NC(=O)[C@H](CC(C)C)NC(=O)[C@H](Cc2c[nH]cn2)NC(=O)[C@H]([C@@H](C)O)NC(=O)[C@H](CCC(N)=O)NC(=O)CNC(=O)[C@H]2CCCN2C(=O)[C@H](CCC(N)=O)NC(=O)[C@H](CCCNC(=N)N)NC(=O)[C@H](C(C)C)NC(=O)[C@H](CCCNC(=N)N)NC1=O [compound 44] (cyclo(THLETTFTGDGTPKTIRVRQ[dP]GQ)) | 1.06 |  |
| CC[C@H](C)[C@@H]1NC(=O)[C@H]([C@@H](C)O)NC(=O)[C@H](CCCCN)NC(=O)[C@@H]2CCCN2C(=O)[C@H]([C@@H](C)O)NC(=O)CNC(=O)[C@H](CC(=O)O)NC(=O)CNC(=O)[C@H]([C@@H](C)O)NC(=O)[C@H](Cc2ccccc2)NC(=O)[C@H]([C@@H](C)O)NC(=O)[C@H]([C@@H](C)O)NC(=O)[C@H](CCC(=O)O)NC(=O)[C@H](CC(C)C)NC(=O)[C@H](Cc2c[nH]cn2)NC(=O)[C@H]([C@@H](C)O)NC(=O)[C@H](CCC(N)=O)NC(=O)CNC(=O)[C@H]2CCCN2C(=O)[C@H](CCC(N)=O)NC(=O)[C@H]([C@@H](C)O)NC(=O)[C@H](Cc2ccc(O)cc2)NC(=O)[C@H](CCCNC(=N)N)NC1=O [compound 47] (cyclo(THLETTFTGDGTPKTIRYTQ[dP]GQ)) | 0.85 |  |
| CC[C@H](C)[C@@H]1NC(=O)[C@H]([C@@H](C)O)NC(=O)[C@H](CCCCN)NC(=O)[C@@H]2CCCN2C(=O)[C@H]([C@@H](C)O)NC(=O)CNC(=O)[C@H](CC(=O)O)NC(=O)CNC(=O)[C@H](Cc2c[nH]c3ccccc23)NC(=O)[C@H](Cc2ccccc2)NC(=O)[C@H]([C@@H](C)O)NC(=O)[C@H]([C@@H](C)O)NC(=O)[C@H](CCC(=O)O)NC(=O)[C@H](CC(C)C)NC(=O)[C@H](Cc2c[nH]cn2)NC(=O)[C@H]([C@@H](C)O)NC(=O)[C@H](CCC(N)=O)NC(=O)CNC(=O)[C@H]2CCCN2C(=O)[C@H](CCC(N)=O)NC(=O)[C@H]([C@@H](C)O)NC(=O)[C@H](C(C)C)NC(=O)[C@H](CCCNC(=N)N)NC1=O [compound 18] (cyclo(THLETTFWGDGTPKTIRVTQ[dP]GQ)) | 0.48 | Ki (FP competition, read-out: Ki): 0.72 µM |
| CC[C@H](C)[C@@H]1NC(=O)[C@H]([C@@H](C)O)NC(=O)[C@H](CCCCN)NC(=O)[C@@H]2CCCN2C(=O)[C@H]([C@@H](C)O)NC(=O)CNC(=O)[C@H](CC(=O)O)NC(=O)CNC(=O)[C@H]([C@@H](C)O)NC(=O)[C@H](Cc2ccccc2)NC(=O)[C@H]([C@@H](C)O)NC(=O)[C@H](CO)NC(=O)[C@H](CCC(=O)O)NC(=O)[C@H](CC(C)C)NC(=O)[C@H](Cc2c[nH]cn2)NC(=O)[C@H]([C@@H](C)O)NC(=O)[C@H](CCC(N)=O)NC(=O)CNC(=O)[C@H]2CCCN2C(=O)[C@H](CCC(N)=O)NC(=O)[C@H]([C@@H](C)O)NC(=O)[C@H](C(C)C)NC(=O)[C@H](CCCNC(=N)N)NC1=O [compound 52] (cyclo(THLESTFTGDGTPKTIRVTQ[dP]GQ)) | 2.51 |  |
| CC[C@H](C)[C@@H]1NC(=O)[C@H]([C@@H](C)O)NC(=O)[C@H](CCCCN)NC(=O)[C@@H]2CCCN2C(=O)[C@H]([C@@H](C)O)NC(=O)CNC(=O)[C@H](CC(=O)O)NC(=O)CNC(=O)[C@H]([C@@H](C)O)NC(=O)[C@H](Cc2ccccc2)NC(=O)[C@H]([C@@H](C)O)NC(=O)[C@H]([C@@H](C)O)NC(=O)[C@H](CCC(=O)O)NC(=O)[C@H](CCCCN)NC(=O)[C@H](Cc2c[nH]cn2)NC(=O)[C@H]([C@@H](C)O)NC(=O)[C@H](CCC(N)=O)NC(=O)CNC(=O)[C@H]2CCCN2C(=O)[C@H](CCC(N)=O)NC(=O)[C@H]([C@@H](C)O)NC(=O)[C@H](C(C)C)NC(=O)[C@H](CCCNC(=N)N)NC1=O [compound 22] (cyclo(THKETTFTGDGTPKTIRVTQ[dP]GQ)) | 0.80 |  |
| CC[C@H](C)[C@@H]1NC(=O)[C@H]([C@@H](C)O)NC(=O)[C@H](CCCCN)NC(=O)[C@@H]2CCCN2C(=O)[C@H]([C@@H](C)O)NC(=O)CNC(=O)[C@H](CC(=O)O)NC(=O)CNC(=O)[C@H]([C@@H](C)O)NC(=O)[C@H](Cc2ccccc2)NC(=O)[C@H](CCC(=O)O)NC(=O)[C@H]([C@@H](C)O)NC(=O)[C@H](CCC(=O)O)NC(=O)[C@H](CC(C)C)NC(=O)[C@H](Cc2c[nH]cn2)NC(=O)[C@H]([C@@H](C)O)NC(=O)[C@H](CCC(N)=O)NC(=O)CNC(=O)[C@H]2CCCN2C(=O)[C@H](CCC(N)=O)NC(=O)[C@H]([C@@H](C)O)NC(=O)[C@H](C(C)C)NC(=O)[C@H](CCCNC(=N)N)NC1=O [compound 53] (cyclo(THLETEFTGDGTPKTIRVTQ[dP]GQ)) | 0.34 | Ki (FP competition, read-out: Ki): 11.5 µM |
| 104 (THLEXTFTGDGTPKTIRVTQPGQ; cyclized peptide; (5)..(5) X is pT; (21)..(21) is D-AA) [compound 104] |  | Ki (FP competition): N.B. |
| 108 (THLETTFTGDGTPKXIRVTQPGQ; cyclized peptide; (15)..(15) X is pT; (21)..(21) is D-AA) [compound 108] |  | Ki (FP competition): N.B. |
| CC[C@H](C)[C@@H]1NC(=O)[C@H]([C@@H](C)O)NC(=O)[C@H](CCCCN)NC(=O)[C@@H]2CCCN2C(=O)[C@@H]([C@H](C)O)NC(=O)CNC(=O)[C@H](CC(=O)O)NC(=O)CNC(=O)[C@H]([C@@H](C)O)NC(=O)[C@H](Cc2ccccc2)NC(=O)[C@H]([C@@H](C)O)NC(=O)[C@H]([C@@H](C)O)NC(=O)[C@H](CCC(=O)O)NC(=O)[C@H](CC(C)C)NC(=O)[C@H](Cc2c[nH]cn2)NC(=O)[C@H]([C@@H](C)O)NC(=O)[C@H](CCC(N)=O)NC(=O)CNC(=O)[C@H]2CCCN2C(=O)[C@H](CCC(N)=O)NC(=O)[C@H]([C@@H](C)O)NC(=O)[C@H](C(C)C)NC(=O)[C@H](CCCNC(=N)N)NC1=O [compound 121] |  | Ki (FP competition, read-out: Ki): 2 µM |
| Cyclo-(THLEATFTGDGTPKTIRVTQpG(Qα)) (cyclo(THLEATFTGDGTPKTIRVTQ[dP]GQ); SMILES CC[C@H](C)[C@@H]1NC(=O)[C@H]([C@@H](C)O)NC(=O)[C@H](CCCCN)NC(=O)[C@@H]2CCCN2C(=O)[C@H]([C@@H](C)O)NC(=O)CNC(=O)[C@H](CC(=O)O)NC(=O)CNC(=O)[C@H]([C@@H](C)O)NC(=O)[C@H](Cc2ccccc2)NC(=O)[C@H]([C@@H](C)O)NC(=O)[C@H](C)NC(=O)[C@H](CCC(=O)O)NC(=O)[C@H](CC(C)C)NC(=O)[C@H](Cc2c[nH]cn2)NC(=O)[C@H]([C@@H](C)O)NC(=O)[C@H](CCC(N)=O)NC(=O)CNC(=O)[C@H]2CCCN2C(=O)[C@H](CCC(N)=O)NC(=O)[C@H]([C@@H](C)O)NC(=O)[C@H](C(C)C)NC(=O)[C@H](CCCNC(=N)N)NC1=O) [SEQ ID NO: 59] |  | effect on interaction with PSD-95-PDZ2 (in words) (FP competition): abolishes binding |
